Earlier results as cited in patent US8999393B1, “Sustained release formulations of lorazepam” (Edgemont Pharmaceuticals LLC, priority 2013, dated 2015).

Experiments:
[1] = according to the package insert

## O=C1Nc2ccc(Cl)cc2C(c2ccccc2Cl)=NC1O (racemic) [lorazepam, ±7-chloro-5-(2-chlorophenyl)-1,3-dihydro-3-hydroxy-2H-1,4-benzodiazepin-2-one]
[1]
  half-life in human plasma: about 12 hours
other
  solubility in water: almost insoluble
